Reference: the NIST ThermoML archive (doi:10.1021/je4007184)
± gives the expanded uncertainty stated by the source.

Columns and labels:
[1] = 298.15 K; 101.33 kPa; Liquid; Pycnometric method
[2] = Boiling temperature at pressure P; settings: 101 kPa; Liquid; Ebulliometric method (Recirculating still)
[3] = refractive index (Na D-line) (dimensionless); settings: 298.15 K; 101.33 kPa; Liquid; Standard Abbe refractometry

| mass density [1] [kg/m3] | Boiling temperature at pressure P [2] [°C] | refractive index [3] | Structure (SMILES) |
| --- | --- | --- | --- |
| 811.04 ± 0.6 | 131.1 ± 0.4 | 1.4155 ± 0.0005 | CC(C)CCO [3-methylbutan-1-ol] |
| 810.12 ± 0.6 | 137.8 ± 0.4 | 1.4078 ± 0.0005 | CCCCCO [pentan-1-ol] |
| 806.57 ± 0.61 | 119.1 ± 0.4 | 1.4048 ± 0.0005 | CCCC(C)O (configuration not stated) [pentan-2-ol] |
| 882.8 ± 0.68 | 101.5 ± 0.4 | 1.3821 ± 0.0005 | CCCOC(C)=O [propyl ethanoate] |
